Results from US8618095B2 (Rigel Pharmaceuticals, Inc., priority 2010, dated 2013).
Where a name gives a salt, the structure may show the parent alone.

These molecules were tested on Human mast cells (CHMC) (assay: LD Tryptase release assay in CHMC (mast cell activation induced by FcγR cross-linking)). Details: Homo sapiens, Mast cell, anti-IgG stimulation, activity of tryptase released upon degranulation.
Assay type: cell-based
How it was run: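 Mast cells derived from CD38-negative progenitors were preincubated 1 h at 37 °C with compound in HEPES-buffered saline (pH 7.4, 0.1% BSA, compound diluted in buffer with 2% MeOH/1% DMSO). Cells were then stimulated 60 min with anti-human IgG (final 1 μg/mL). Released tryptase was measured on Z-Ala-Lys-Arg-AMC (30 min, room temperature, 355/460 nm) to give the IC50.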

| Compound | IC50 [nM] |
| --- | --- |
| CC1(C)Oc2ccc(Nc3nc(Nc4ccc(N5CC(O)C5)nc4)ncc3F)nc2NC1=O [Compound 146, N4-(2,2-dimethyl-3,4-dihydro-3-oxo-2H-pyrido[3,2-b][1,4]oxazin-6-yl)-5-fluoro-N2-[6-(3-hydroxyazetidin-1-yl)pyridin-3-yl]-2,4-pyrimidinediamine] | 1000 to 100000 |
| CC1(C)Oc2ccc(Nc3nc(Nc4ccc(N5CCNC(=O)C5)cc4)ncc3F)nc2NC1=O [Compound 151, N4-(2,2-dimethyl-3,4-dihydro-3-oxo-2H-pyrido[3,2-b][1,4]oxazin-6-yl)-5-fluoro-N2-[4-(3-oxopiperazin-1-yl)phenyl]-2,4-pyrimidinediamine] | 100 to 500 |
| CC1(C)Oc2ccc(Nc3nc(Nc4ccc(N5CCC(N6CCOCC6)CC5)cc4)ncc3F)nc2NC1=O [Compound 87, N4-(2,2-dimethyl-3,4-dihydro-3-oxo-2H-pyrido[3,2-b][1,4]oxazin-6-yl)-5-fluoro-N2-[4-(4-morpholinopiperidin-1-yl)phenyl]-2,4-pyrimidinediamine] | 100 to 500 |
| CCN(CC)C1CCN(c2ccc(Nc3ncc(F)c(Nc4ccc5c(n4)NC(=O)C(C)(C)O5)n3)cc2)CC1 [Compound 88, N4-(2,2-dimethyl-3,4-dihydro-3-oxo-2H-pyrido[3,2-b][1,4]oxazin-6-yl)-5-fluoro-N2-[4-(4-(diethylamino)piperidin-1-yl)phenyl]-2,4-pyrimidinediamine] | 100 to 500 |
| C=C1COCCN1c1ccc(Nc2ncc(F)c(Nc3ccc4c(n3)NC(=O)C(C)(C)O4)n2)cn1 [Compound 58, N4-(2,2-dimethyl-3,4-dihydro-3-oxo-2H-pyrido[3,2-b][1,4]oxazin-6-yl)-5-fluoro-N2-[6-(3-methylenemorpholino)pyridin-3-yl]-2,4-pyrimidinediamine] | 1000 to 100000 |
| CC1(C)Oc2ccc(Nc3nc(Nc4ccc(N5CCSCC5)cc4)ncc3F)nc2NC1=O [Compound 153, N4-(2,2-dimethyl-3,4-dihydro-3-oxo-2H-pyrido[3,2-b][1,4]oxazin-6-yl)-5-fluoro-N2-[4-thiomorpholinophenyl]-2,4-pyrimidinediamine] | 1000 to 100000 |
| CCOCC1CN(c2ccc(Nc3ncc(F)c(Nc4ccc5c(n4)NC(=O)CO5)n3)cc2)CCO1 (stereo in doubt) [Compound 41, N4-(3,4-dihydro-3-oxo-2H-pyrido[3,2-b][1,4]oxazin-6-yl)-5-fluoro-N2-[4-(((2S)-2-ethoxymethyl)morpholino)phenyl]-2,4-pyrimidinediamine] | 100 to 500 |
| CCCN1C(=O)COc2ccc(Nc3nc(Nc4ccc(N5CCOCC5)c(C(F)(F)F)c4)ncc3F)nc21 [Compound 148, N4-(3,4-dihydro-3-oxo-4-propyl-2H-pyrido[3,2-b][1,4]oxazin-6-yl)-5-fluoro-N2-[4-morpholino-3-(trifluoromethyl)phenyl]-2,4-pyrimidinediamine] | < 100 |
| [2H]C1([2H])OC([2H])([2H])C([2H])([2H])N(c2ccc(Nc3ncc(F)c(Nc4ccc5c(n4)NC(=O)C(C)(C)O5)n3)cn2)C1([2H])[2H] [Compound 107, N4-(2,2-dimethyl-3,4-dihydro-3-oxo-2H-pyrido[3,2-b][1,4]oxazin-6-yl)-5-fluoro-N2-[6-(2,2,3,3,5,5,6,6-d8-morpholino)pyridin-3-yl]-2,4-pyrimidinediamine] | < 100 |
| CC1(C)Oc2ccc(Nc3nc(Nc4ccc(N5CCOC5=O)nc4)ncc3F)nc2NC1=O [Compound 72, N4-(2,2-dimethyl-3,4-dihydro-3-oxo-2H-pyrido[3,2-b][1,4]oxazin-6-yl)-5-fluoro-N2-[6-(2-oxooxazolidin-3-yl)pyridin-3-yl]-2,4-pyrimidinediamine] | 100 to 500 |
| COCCN(C)c1ccc(Nc2ncc(F)c(Nc3ccc4c(n3)NC(=O)C(C)(C)O4)n2)cn1 [Compound 99] | 100 to 500 |
| COC1CN(c2ccc(Nc3ncc(F)c(Nc4ccc5c(n4)NC(=O)C(C)(C)O5)n3)cn2)C1 [Compound 69, N4-(2,2-dimethyl-3,4-dihydro-3-oxo-2H-pyrido[3,2-b][1,4]oxazin-6-yl)-5-fluoro-N2-[6-(3-methoxyazetidin-1-yl)pyridin-3-yl]-2,4-pyrimidinediamine] | > 100000 |
| CC1(C)Oc2ccc(Nc3nc(Nc4ccc(N5CCOCC5)c(OC(F)(F)F)c4)ncc3F)nc2NC1=O [Compound 28, N4-(2,2-dimethyl-3,4-dihydro-3-oxo-2H-pyrido[3,2-b][1,4]oxazin-6-yl)-5-fluoro-N2-[3-trifluoromethoxy-4-morpholinophenyl]-2,4-pyrimidinediamine] | > 100000 |
| Cc1cc(Nc2ncc(F)c(Nc3ccc4c(n3)NC(=O)CO4)n2)ccc1N1CCOCC1 [Compound 32] | < 100 |
| COC1CCN(c2ccc(Nc3ncc(F)c(Nc4ccc5c(n4)NC(=O)C(C)(C)O5)n3)cc2)CC1 [Compound 152, N4-(2,2-dimethyl-3,4-dihydro-3-oxo-2H-pyrido[3,2-b][1,4]oxazin-6-yl)-5-fluoro-N2-[4-(4-methoxypiperidin-1-yl)phenyl]-2,4-pyrimidinediamine] | < 100 |
| CC1(C)Oc2ccc(Nc3nc(Nc4ccc(N5CCC(C#N)CC5)cc4)ncc3F)nc2NC1=O [Compound 154, N4-(2,2-dimethyl-3,4-dihydro-3-oxo-2H-pyrido[3,2-b][1,4]oxazin-6-yl)-5-fluoro-N2-[4-(4-cyanopiperidin-1-yl)phenyl]-2,4-pyrimidinediamine] | 100 to 500 |
| CC1(C)Oc2ccc(Nc3nc(Nc4ccc(N5CCC(C(N)=O)CC5)cc4)ncc3F)nc2NC1=O [Compound 150, N4-(2,2-dimethyl-3,4-dihydro-3-oxo-2H-pyrido[3,2-b][1,4]oxazin-6-yl)-5-fluoro-N2-[4-(4-(aminocarbonyl)piperidin-1-yl)phenyl]-2,4-pyrimidinediamine] | 100 to 500 |
| CC1(C)Oc2ccc(Nc3nc(Nc4ccc(N5CCC(F)(F)CC5)cc4)ncc3F)nc2NC1=O [Compound 29, N4-(2,2-dimethyl-3,4-dihydro-3-oxo-2H-pyrido[3,2-b][1,4]oxazin-6-yl)-5-fluoro-N2-[4-(4,4-difluoro-1-piperidinyl)phenyl]-2,4-pyrimidinediamine] | 1000 to 100000 |
| CC1(C)Oc2ccc(Nc3nc(Nc4ccc(N5CCOCC5CO)c(F)c4)ncc3F)nc2NC1=O (stereo not shown) [Compound 89, N4-(2,2-dimethyl-3,4-dihydro-3-oxo-2H-pyrido[3,2-b][1,4]oxazin-6-yl)-5-fluoro-N2-[3-fluoro-4-(3-(hydroxymethyl)morpholino)phenyl]-2,4-pyrimidinediamine] | 100 to 500 |
| CC1(C)Oc2ccc(Nc3nc(Nc4ccc(N5CCC6(CCCO6)CC5)cc4)ncc3F)nc2NC1=O [Compound 156, N4-(2,2-dimethyl-3,4-dihydro-3-oxo-2H-pyrido[3,2-b][1,4]oxazin-6-yl)-5-fluoro-N2-[4-(1-oxa-8-azaspiro[4.5]decan-8-yl)phenyl]-2,4-pyrimidinediamine] | 100 to 500 |
| CN(C[C@H]1CCCO1)c1ccc(Nc2ncc(F)c(Nc3ccc4c(n3)NC(=O)CO4)n2)cn1 [Compound 110, N4-(3,4-dihydro-3-oxo-2H-pyrido[3,2-b][1,4]oxazin-6-yl)-5-fluoro-N2-[6-(((R)-methyl(tetrahydrofuran-2-yl)methyl)amino)pyridin-3-yl]-2,4-pyrimidinediamine] | 1000 to 100000 |
| CO[C@@H]1CCN(c2ccc(Nc3ncc(F)c(Nc4ccc5c(n4)NC(=O)C(C)(C)O5)n3)cn2)C1 [Compound 65, N4-(2,2-dimethyl-3,4-dihydro-3-oxo-2H-pyrido[3,2-b][1,4]oxazin-6-yl)-5-fluoro-N2-[6-((3R)-3-methoxypyrrolidin-1-yl)pyridin-3-yl]-2,4-pyrimidinediamine] | 100 to 500 |

Same assay, conditions: Mast cell, anti-IgG stimulation, activity of tryptase released upon degranulation

| Compound | IC50 [nM] |
| --- | --- |
| CC1(C)Oc2ccc(Nc3nc(Nc4ccc(N5CCOCC5)cc4)ncc3F)nc2N(COP(=O)(O)O)C1=O [Compound 2, N4-(2,2-dimethyl-3,4-dihydro-4-[(dihydrogenphosphonoxy)methyl]-3-oxo-2H-pyrido[3,2-b][1,4]oxazin-6-yl)-5-fluoro-N2-(4-morpholinophenyl)-2,4-pyrimidinediamine] | 1000 to 100000 |

Same assay, conditions: anti-IgG stimulation, activity of tryptase released upon degranulation

| Compound | IC50 [nM] |
| --- | --- |
| CC1(C)CN(c2ccc(Nc3ncc(F)c(Nc4ccc5c(n4)N(COP(=O)(O)O)C(=O)CO5)n3)cc2)CCO1 [Compound 129, N4-(3,4-dihydro-4-[(dihydrogenphosphonoxy)methyl]-3-oxo-2H-pyrido[3,2-b][1,4]oxazin-6-yl)-5-fluoro-N2-[4-(2,2-dimethylmorpholino)phenyl]-2,4-pyrimidinediamine disodium salt] | 1000 to 100000 |
| C[C@H]1COCCN1c1ccc(Nc2ncc(F)c(Nc3ccc4c(n3)N(COP(=O)(O)O)C(=O)C(C)(C)O4)n2)cn1 [Compound 97, N4-(2,2-dimethyl-3,4-dihydro-4-[(dihydrogenphosphonoxy)methyl]-3-oxo-2H-pyrido[3,2-b][1,4]oxazin-6-yl)-5-fluoro-N2-[6-((3S)-3-methylmorpholino)pyridin-3-yl]-2,4-pyrimidinediamine disodium salt] | 1000 to 100000 |
| CC1(C)Oc2ccc(Nc3nc(Nc4ccc(N5CCOCC5)nc4)ncc3F)nc2N(COP(=O)(O)O)C1=O [Compound 4, N4-(2,2-dimethyl-3,4-dihydro-4-[(dihydrogenphosphonoxy)methyl]-3-oxo-2H-pyrido[3,2-b][1,4]oxazin-6-yl)-5-fluoro-N2-(6-morpholinopyridin-3-yl)-2,4-pyrimidinediamine disodium salt] | 1000 to 100000 |
| CC1(C)Oc2ccc(Nc3nc(Nc4ccc(N5CCOCC5)nc4)ncc3F)nc2NC1=O [Compound 3, N4-(2,2-dimethyl-3,4-dihydro-3-oxo-2H-pyrido[3,2-b][1,4]oxazin-6-yl)-5-fluoro-N2-[6-morpholinopyridin-3-yl]-2,4-pyrimidinediamine] | < 100 |
| Cc1cc(Nc2ncc(F)c(Nc3ccc4c(n3)N(COP(=O)(O)O)C(=O)C(C)(C)O4)n2)ccc1N1CCOCC1 [Compound 112, N4-(2,2-dimethyl-3,4-dihydro-4-[(dihydrogenphosphonoxy)methyl]-3-oxo-2H-pyrido[3,2-b][1,4]oxazin-6-yl)-5-fluoro-N2-(3-methyl-4-morpholinophenyl)-2,4-pyrimidinediamine disodium salt] | 500 to 1000 |
